Patent publication US20030153611A1, “1,3-Diarylprop-2-en-1-ones, compositions containing them and use thereof” (AVENTIS PHARMA S.A., priority 2001, published 2003)
Counter-ions that a name gives are not always drawn.

How the values were obtained:
HeLa cells = assay: Inhibition of proliferation of HeLa cells ([14C]-thymidine incorporation); type: cell-based; conditions: Homo sapiens, incubation for 48 hours, read-out: Inhibition of cell proliferation IC50 HeLa
Experimental: The proliferation of HeLa cells is assessed by measuring the incorporation of [^14C]-thymidine in the following way. The HeLa cells (epithelial tumor cells of human origin) are cultured in a DMEM medium (Gibco) which contains 10% fetal calf serum and antibiotics (1% penicillin, 1% streptomycin). To carry out the proliferation test, the cells are inoculated into 96-well cytostar microplates (Amersham), at a rate of 5 000 cells per well. [^14C]-thymidine (0.1 μCi/well) and the products to be assessed are then added. Variable concentrations of products up to 10 μM are used; the DMSO (solvent used to dissolve the products) should not exceed 0.5% in the medium. After incubation for 48 hours at 37° C., the radioactivity incorporated into the cells is measured by counting the plate in a TRI-LUX counter (Wallac). The IC50 value is defined as the concentration of product which reduces the radioactivity by 50% relative to an untreated control. A product whose IC50 value is less than 1 μM is considered as cytotoxic.

HDMEC cells = assay: Detachment effect on HDMEC endothelial cells; type: cell-based, Human; conditions: 1 μM, treatment for two hours
Description: A test to determine the detachment of endothelial cells was established in order to select the products on the basis of their “in vitro” activity. This test for determining the endothelial cell detachment is characterized in that the endothelial cells, inoculated in plates which are coated at the bottom with a binder, e.g., chosen from gelatin, fibronectin or vitronectin, after culturing, are supplemented with a medium containing the test compound, and the cells are then labeled with a fluorescent substance, the cells which become detached are removed by washing and the fluorescence of the remaining cells is counted in a fluorimeter.
This test consists in measuring the detachment of endothelial cells cultured on substrates based on a binder, e.g., chosen from fibronectin, vitronectin and gelatin. One day after inoculating the cells in plates containing 96 wells, for example, the culture medium is replaced with a medium containing the test compound in the absence of serum. The same preparation is prepared six times at three different concentrations ([…]) and the control without addition of antivascular product is prepared six times. After treatment for two hours with the test substance, the cells are labeled with calcein-AM (1.6 μg/ml) in a culture medium supplemented with 0.1% BSA. The cells which become detached are removed by washing with the culture medium containing 0.1% bovine serum albumin; 100 μl of medium are added to each well. The fluorescence of the remaining cells is counted in a fluorimeter. The data obtained are expressed relative to the control (untreated cells).
(§1) The assessment of the detachment of the endothelial cells in vitro is determined in the following way. HDMEC cells (Human Dermal Microvascular Endothelial Cells, Promocell, c-122102) are cultured in an ECGM-MV medium containing 5% fetal calf serum, growth factors (EGF 10 ng/ml, hydrocortisone 1 μg/ml, 0.4% growth supplement with heparin) and antibiotics (amphotericin 50 ng/ml, gentamicin 50 μg/ml). For the detachment test, the HDMECs are inoculated at a rate of 5 000 cells in clear-bottomed 96-well plates (Costar) precoated with fibronectin (10 μg/ml) or vitronectin (1 μg/ml) or gelatin. Twenty-four hours later, the culture medium is replaced with 0.1% BSA ECGM-MV medium containing the indicated products. The test concentrations are 0.1-0.3 and 1 μM for each product. After treatment for two hours, the cells are labeled for 1 hour with calcein (1.6 μg/ml, Molecular Probes) in 0.1% BSA ECGM-MV medium. The detached cells are then removed by washing with 0.1% BSA ECGM-MV medium; 100 μl of medium are added to each well. The fluorescence of the cells which remain attached to the substratum of the well is counted using a fluorimeter, Spectrafluor Plus (Tecan, excitation at 485 nm, and emission at 535 nm). The data are the average of six different samples and are expressed as a percentage of the control (untreated cells).
A cell detachment effect of greater than or equal to 15% is considered as significant.
as §1, with “(amphotericine” for “(amphotericin”, “The detached cells are then removed by washing with 0.1% BSA ECGM-MV medium; 100 μl of medium are added to each well. The fluorescence of the cells which remain attached to the substratum of the well is counted using a fluorimeter, Spectrafluor Plus (Tecan, excitation at 485 nm, and emission at 535 nm). The data are the average of six different samples and are expressed as a percentage of the control (untreated cells).” left out

IC50 (HeLa cells) | Structure (SMILES) | Percentage of detachment of HDMEC cells induced with the compound at a concentration of 1 μM (HDMEC cells)
5 to 10 nM | COc1cc(C(=O)/C(C)=C/c2ccc3c(ccn3C)c2)cc(OC)c1OC [Example 5, E-2-Methyl-3-(1-methyl-1-H-indol-5-yl)-1-(3,4,5-trimethoxyphenyl)propenone] | 32%
100 nM | COc1ccc(/C=C(\C)C(=O)c2cc(OC)c(OC)c(OC)c2)cc1NC(=O)[C@@H](N)CO [Example 13, (S)-2-Amino-3-hydroxypropanoic acid {2-methoxy-5-[2-methyl-3-oxo-3-(3,4,5-trimethoxyphenyl)propenyl]phenyl}amide hydrochloride] | 31%
